Results taken from PubChem BioAssay AID2060510 (Molecular Pharmacology Branch, DTP, NCI, 2025).

Test system: 439559-082-T-J2-PDC spheroids viability
Test: Anticancer human tumor 439559-082-T-J2-PDC patient-derived colon adenocarcinoma cell line growth inhibition [GQUAD]
Conditions: for IC50: curve of first compound; for viability, T/C: stronger effect = lower value
How it was run: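 Viability of tumor cells grown as complex spheroids with endothelial and stromal cells, exposed to drug combinations. Top concentration at or near clinical Cmax (else 10 microM), diluted in half-log increments.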

[1] = second compound 0.0316 µM, first compound 0.0316 µM
[2] = second compound 0.0316 µM, first compound 0.1 µM
[3] = second compound 0.0316 µM, first compound 0.316 µM
[4] = second compound 0.0316 µM, first compound 1 µM
[5] = second compound 0.0316 µM, first compound 3.16 µM
[6] = second compound 0.0316 µM, first compound 10 µM
[7] = second compound 0.1 µM, first compound 0.0316 µM
[8] = second compound 0.1 µM, first compound 0.1 µM
[9] = second compound 0.1 µM, first compound 0.316 µM
[10] = second compound 0.1 µM, first compound 1 µM
[11] = second compound 0.1 µM, first compound 3.16 µM
[12] = second compound 0.1 µM, first compound 10 µM
[13] = second compound 0.316 µM, first compound 0.0316 µM
[14] = second compound 0.316 µM, first compound 0.1 µM
[15] = second compound 0.316 µM, first compound 0.316 µM
[16] = second compound 0.316 µM, first compound 1 µM
[17] = second compound 0.316 µM, first compound 3.16 µM
[18] = second compound 0.316 µM, first compound 10 µM
[19] = second compound 1 µM, first compound 0.0316 µM
[20] = second compound 1 µM, first compound 0.1 µM
[21] = second compound 1 µM, first compound 0.316 µM
[22] = second compound 1 µM, first compound 1 µM
[23] = second compound 1 µM, first compound 3.16 µM
[24] = second compound 1 µM, first compound 10 µM
[25] = second compound 3.16 µM, first compound 0.0316 µM
[26] = second compound 3.16 µM, first compound 0.1 µM
[27] = second compound 3.16 µM, first compound 0.316 µM
[28] = second compound 3.16 µM, first compound 1 µM
[29] = second compound 3.16 µM, first compound 3.16 µM
[30] = second compound 3.16 µM, first compound 10 µM
[31] = second compound 10 µM, first compound 0.0316 µM
[32] = second compound 10 µM, first compound 0.1 µM
[33] = second compound 10 µM, first compound 0.316 µM
[34] = second compound 10 µM, first compound 1 µM
[35] = second compound 10 µM, first compound 3.16 µM
[36] = second compound 10 µM, first compound 10 µM
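Also: spheroids exposed to the agents for 7 days before readout.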
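For viability, T/C in this document: percent of luminescence signal in DMSO vehicle wells taken as 100% viability.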

SMILES: C#Cc1c(F)ccc2cc(O)cc(-c3ncc4c(N5CC6CCC(C5)N6)nc(OCC56CCCN5CC(F)C6)nc4c3F)c12 (stereo not drawn) + Cc1cnc(CNC(=O)c2c(=O)c3ccc(N4CCCN(C)CC4)nc3n3c2sc2ccccc23)cn1
- IC50 (second compound 0.0316 µM): 9.53 µM
- IC50 (second compound 0.1 µM): > 10 µM
- IC50 (second compound 0.316 µM): 6.48 µM
- IC50 (second compound 1 µM): 3.09 µM
- IC50 (second compound 3.16 µM): 1.91 µM
- IC50 (second compound 10 µM): 0.665 µM
- viability, T/C [1]: 92.5%
- viability, T/C [2]: 81.9%
- viability, T/C [3]: 76%
- viability, T/C [4]: 62.7%
- viability, T/C [5]: 62.6%
- viability, T/C [6]: 47.5%
- viability, T/C [7]: 92.6%
- viability, T/C [8]: 80.1%
- viability, T/C [9]: 60.1%
- viability, T/C [10]: 61.2%
- viability, T/C [11]: 57.2%
- viability, T/C [12]: 53%
- viability, T/C [13]: 81.2%
- viability, T/C [14]: 68.8%
- viability, T/C [15]: 68.9%
- viability, T/C [16]: 57.9%
- viability, T/C [17]: 58.6%
- viability, T/C [18]: 45.2%
- viability, T/C [19]: 86.2%
- viability, T/C [20]: 66.9%
- viability, T/C [21]: 65.3%
- viability, T/C [22]: 56.1%
- viability, T/C [23]: 49.5%
- viability, T/C [24]: 45.8%
- viability, T/C [25]: 71.3%
- viability, T/C [26]: 73.1%
- viability, T/C [27]: 56.7%
- viability, T/C [28]: 55.8%
- viability, T/C [29]: 47.8%
- viability, T/C [30]: 36.8%
- viability, T/C [31]: 59.1%
- viability, T/C [32]: 55.9%
- viability, T/C [33]: 49.4%
- viability, T/C [34]: 51.3%
- viability, T/C [35]: 42.1%
- viability, T/C [36]: 33.7%

SMILES: CCCS(=O)(=O)Nc1ccc(F)c(C(=O)c2c[nH]c3ncc(-c4ccc(Cl)cc4)cc23)c1F + Cc1cnc(CNC(=O)c2c(=O)c3ccc(N4CCCN(C)CC4)nc3n3c2sc2ccccc23)cn1
- IC50 (second compound 0.0316 µM): > 10 µM
- IC50 (second compound 0.1 µM): > 10 µM
- IC50 (second compound 0.316 µM): > 10 µM
- IC50 (second compound 1 µM): 9.59 µM
- IC50 (second compound 3.16 µM): 6.53 µM
- IC50 (second compound 10 µM): 3.76 µM
- viability, T/C [1]: 97.5%
- viability, T/C [2]: 103%
- viability, T/C [3]: 103%
- viability, T/C [4]: 101%
- viability, T/C [5]: 101%
- viability, T/C [6]: 77.1%
- viability, T/C [7]: 96.9%
- viability, T/C [8]: 99.5%
- viability, T/C [9]: 99.7%
- viability, T/C [10]: 99.3%
- viability, T/C [11]: 99.1%
- viability, T/C [12]: 53.2%
- viability, T/C [13]: 84.4%
- viability, T/C [14]: 89.7%
- viability, T/C [15]: 90%
- viability, T/C [16]: 86.1%
- viability, T/C [17]: 88.1%
- viability, T/C [18]: 54%
- viability, T/C [19]: 78.4%
- viability, T/C [20]: 78.5%
- viability, T/C [21]: 78%
- viability, T/C [22]: 78.2%
- viability, T/C [23]: 83.8%
- viability, T/C [24]: 48.9%
- viability, T/C [25]: 70.9%
- viability, T/C [26]: 71.5%
- viability, T/C [27]: 70.8%
- viability, T/C [28]: 63.5%
- viability, T/C [29]: 68.1%
- viability, T/C [30]: 39.7%
- viability, T/C [31]: 60.8%
- viability, T/C [32]: 58.6%
- viability, T/C [33]: 70.2%
- viability, T/C [34]: 64.5%
- viability, T/C [35]: 57.5%
- viability, T/C [36]: 5.82%

SMILES: Nc1ccn(C2OC(CO)C(O)C2(F)F)c(=O)n1 (stereo not drawn) + Cc1cnc(CNC(=O)c2c(=O)c3ccc(N4CCCN(C)CC4)nc3n3c2sc2ccccc23)cn1
- IC50 (second compound 0.0316 µM): 0.234 µM
- IC50 (second compound 0.1 µM): 0.213 µM
- IC50 (second compound 0.316 µM): 0.231 µM
- IC50 (second compound 1 µM): 0.174 µM
- IC50 (second compound 3.16 µM): 0.171 µM
- IC50 (second compound 10 µM): 0.153 µM
- viability, T/C [1]: 87.8%
- viability, T/C [2]: 65.9%
- viability, T/C [3]: 41.4%
- viability, T/C [4]: 35.3%
- viability, T/C [5]: 27.3%
- viability, T/C [6]: 20.8%
- viability, T/C [7]: 81.4%
- viability, T/C [8]: 62.3%
- viability, T/C [9]: 43.4%
- viability, T/C [10]: 29.8%
- viability, T/C [11]: 27.8%
- viability, T/C [12]: 18.4%
- viability, T/C [13]: 84.2%
- viability, T/C [14]: 65.4%
- viability, T/C [15]: 42.9%
- viability, T/C [16]: 31.9%
- viability, T/C [17]: 25.4%
- viability, T/C [18]: 19.2%
- viability, T/C [19]: 74.3%
- viability, T/C [20]: 61.7%
- viability, T/C [21]: 37.4%
- viability, T/C [22]: 28.8%
- viability, T/C [23]: 26%
- viability, T/C [24]: 27.3%
- viability, T/C [25]: 66.9%
- viability, T/C [26]: 56.1%
- viability, T/C [27]: 43.5%
- viability, T/C [28]: 28.3%
- viability, T/C [29]: 25.7%
- viability, T/C [30]: 19.6%
- viability, T/C [31]: 67.2%
- viability, T/C [32]: 56.3%
- viability, T/C [33]: 39.3%
- viability, T/C [34]: 29.8%
- viability, T/C [35]: 24.6%
- viability, T/C [36]: 22.6%

SMILES: O=c1[nH]cc(F)c(=O)[nH]1 + Cc1cnc(CNC(=O)c2c(=O)c3ccc(N4CCCN(C)CC4)nc3n3c2sc2ccccc23)cn1
- IC50 (second compound 0.0316 µM): > 10 µM
- IC50 (second compound 0.1 µM): > 10 µM
- IC50 (second compound 0.316 µM): > 10 µM
- IC50 (second compound 1 µM): > 10 µM
- IC50 (second compound 3.16 µM): > 10 µM
- IC50 (second compound 10 µM): > 10 µM
- viability, T/C [1]: 100%
- viability, T/C [2]: 102%
- viability, T/C [3]: 87.2%
- viability, T/C [4]: 74.5%
- viability, T/C [5]: 67%
- viability, T/C [6]: 63.6%
- viability, T/C [7]: 91.9%
- viability, T/C [8]: 96.4%
- viability, T/C [9]: 81.2%
- viability, T/C [10]: 72.9%
- viability, T/C [11]: 68.7%
- viability, T/C [12]: 67.4%
- viability, T/C [13]: 88.2%
- viability, T/C [14]: 90%
- viability, T/C [15]: 73.7%
- viability, T/C [16]: 63.5%
- viability, T/C [17]: 66.7%
- viability, T/C [18]: 66%
- viability, T/C [19]: 88.9%
- viability, T/C [20]: 73.6%
- viability, T/C [21]: 62.7%
- viability, T/C [22]: 59.9%
- viability, T/C [23]: 66.4%
- viability, T/C [24]: 65.2%
- viability, T/C [25]: 62.5%
- viability, T/C [26]: 68.3%
- viability, T/C [27]: 63%
- viability, T/C [28]: 58.4%
- viability, T/C [29]: 59.9%
- viability, T/C [30]: 52.7%
- viability, T/C [31]: 68.7%
- viability, T/C [32]: 66.3%
- viability, T/C [33]: 67.8%
- viability, T/C [34]: 57.8%
- viability, T/C [35]: 57.7%
- viability, T/C [36]: 58.3%
